Reference: a compilation of properties of binary mixtures (doi:10.1021/acs.iecr.1c02970)

Test: xn = mol fraction of the nth substance listed
Details: 100 kPa, x2 = 0

O + CC[n+]1ccn(C)c1.CS(=O)(=O)[O-]
Details	electrical conductivity [S/m]	speed of sound [m/s]	viscosity [mPa·s]
293.15 K	–	–	1.002
303.15 K	0.0001	–	0.797
313.15 K	0.0002	1529.2	0.653
318.15 K	–	1536.7	–
343.15 K	0.0018	1555.1	0.4039
353.15 K	0.0023	–	0.3544
